According to ChEMBL document CHEMBL3885861, “Open TG-GATES”:

Species: Rattus norvegicus
Assay: Open TG-GATES - Regimen: Single
Type: toxicity, organism-based, Sprague-Dawley
Parameters: regimen Single, gender Male, age 6 weeks
Settings: in vivo, po, route gavage; for APTT / Bas / Eos / Fbg / Hb / Ht / Lym / MCH / MCHC / MCV / Mono / Neu / PT / Plat / RBC / Ret / WBC: tissue Blood; for KIDNEY_L / KIDNEY_R / KIDNEY_TOTAL: tissue Kidney; for LIVER: tissue Liver; for A/G / ALP / ALT / AST / BUN / CRE / Ca / Cl / DBIL / GLC / IP / LDH / Na / PL / RALB / TBIL / TC / TG / TP / gamma-GTP: tissue Plasma
[1] = 0 mg/kg, 3 h, dose level Control
[2] = 0 mg/kg, 6 h, dose level Control
[3] = 0 mg/kg, 9 h, dose level Control
[4] = 0 mg/kg, 24 h, dose level Control
[5] = 100 mg/kg, 24 h, dose level Low

## NC(N)=Nc1nc(CSCCC(N)=NS(N)(=O)=O)cs1 [FAMOTIDINE]
[1]
  TERMINAL_BW: 217.3 g
  APTT: 20.1 s
  Bas: 0%
  Eos: 1%
  Fbg: 209.8 mg/dL
  Hb: 13.2 g/dL
  Ht: 37.2%
  Lym: 64.8%
  MCH: 22.3 pg
  MCHC: 35.5%
  MCV: 62.6 fL
  Mono: 3.8%
  Neu: 26.8%
  PT: 12.5 s
  Plat: 110.5 x10_4/uL
  RBC: 593.6 x10_4/ul
  Ret: 8.2%
  WBC: 81.2 x10_2/uL
  KIDNEY_L: 1 g
  KIDNEY_R: 1 g
  KIDNEY_TOTAL: 1.9 g
  LIVER: 10.4 g
  A/G: 1.7
  ALP: 809.6 IU/L
  ALT: 39 IU/L
  AST: 71 IU/L
  BUN: 10.8 mg/dL
  CRE: 0.4 mg/dL
  Ca: 10.8 mg/dL
  Cl: 103.2 meq/L
  DBIL: 0.078 mg/dL
  GLC: 197.2 mg/dL
  IP: 9.1 mg/dL
  LDH: 196.4 IU/L
  Na: 140.8 meq/L
  PL: 139 mg/dL
  RALB: 3.4 g/dL
  TBIL: 0.1 mg/dL
  TC: 77.4 mg/dL
  TG: 55.8 mg/dL
  TP: 5.4 g/dL
  gamma-GTP: 1.4 IU/L
[2]
  TERMINAL_BW: 212.9 g
  APTT: 20 s
  Bas: 0%
  Eos: 0.8%
  Fbg: 218.6 mg/dL
  Hb: 13.4 g/dL
  Ht: 37.6%
  Lym: 79.4%
  MCH: 22 pg
  MCHC: 35.7%
  MCV: 61.7 fL
  Mono: 2.4%
  Neu: 15.2%
  PT: 12.4 s
  Plat: 119.6 x10_4/uL
  RBC: 610.2 x10_4/ul
  Ret: 6.9%
  WBC: 94.2 x10_2/uL
  KIDNEY_L: 1 g
  KIDNEY_R: 1 g
  KIDNEY_TOTAL: 2 g
  LIVER: 9.3 g
  A/G: 1.5
  ALP: 928.8 IU/L
  ALT: 32.6 IU/L
  AST: 64.2 IU/L
  BUN: 9.2 mg/dL
  CRE: 0.4 mg/dL
  Ca: 10.7 mg/dL
  Cl: 102.6 meq/L
  DBIL: 0.068 mg/dL
  GLC: 193.8 mg/dL
  IP: 9 mg/dL
  LDH: 193.6 IU/L
  Na: 140 meq/L
  PL: 142.8 mg/dL
  RALB: 3.3 g/dL
  TBIL: 0.1 mg/dL
  TC: 80.6 mg/dL
  TG: 60 mg/dL
  TP: 5.5 g/dL
  gamma-GTP: 1 IU/L
[3]
  TERMINAL_BW: 209.9 g
  APTT: 19.9 s
  Bas: 0%
  Eos: 1%
  Fbg: 228.2 mg/dL
  Hb: 13.3 g/dL
  Ht: 36.7%
  Lym: 65.4%
  MCH: 22.9 pg
  MCHC: 36.2%
  MCV: 63.3 fL
  Mono: 2.4%
  Neu: 29%
  PT: 12.7 s
  Plat: 118.2 x10_4/uL
  RBC: 580.8 x10_4/ul
  Ret: 7.5%
  WBC: 106.4 x10_2/uL
  KIDNEY_L: 1 g
  KIDNEY_R: 1 g
  KIDNEY_TOTAL: 2 g
  LIVER: 9.1 g
  A/G: 1.5
  ALP: 883.2 IU/L
  ALT: 28.4 IU/L
  AST: 56.8 IU/L
  BUN: 8.8 mg/dL
  CRE: 0.3 mg/dL
  Ca: 10.4 mg/dL
  Cl: 102.8 meq/L
  DBIL: 0.056 mg/dL
  GLC: 205.2 mg/dL
  IP: 9.4 mg/dL
  LDH: 138.6 IU/L
  Na: 140 meq/L
  PL: 133.8 mg/dL
  RALB: 3.2 g/dL
  TBIL: 0.1 mg/dL
  TC: 70.6 mg/dL
  TG: 46.6 mg/dL
  TP: 5.4 g/dL
  gamma-GTP: 0.8 IU/L
[4]
  TERMINAL_BW: 226.6 g
  APTT: 19.6 s
  Bas: 0%
  Eos: 1%
  Fbg: 232.4 mg/dL
  Hb: 13.3 g/dL
  Ht: 37.3%
  Lym: 78.4%
  MCH: 22.5 pg
  MCHC: 35.7%
  MCV: 63.2 fL
  Mono: 2.8%
  Neu: 15.8%
  PT: 11.9 s
  Plat: 126.9 x10_4/uL
  RBC: 590 x10_4/ul
  Ret: 6.6%
  WBC: 84.4 x10_2/uL
  KIDNEY_L: 1.1 g
  KIDNEY_R: 1.1 g
  KIDNEY_TOTAL: 2.1 g
  LIVER: 11 g
  A/G: 1.5
  ALP: 1002.2 IU/L
  ALT: 34.2 IU/L
  AST: 65.4 IU/L
  BUN: 13.4 mg/dL
  CRE: 0.4 mg/dL
  Ca: 10.7 mg/dL
  Cl: 102.6 meq/L
  DBIL: 0.088 mg/dL
  GLC: 186.4 mg/dL
  IP: 7.3 mg/dL
  LDH: 203.2 IU/L
  Na: 139.4 meq/L
  PL: 147.2 mg/dL
  RALB: 3.4 g/dL
  TBIL: 0.1 mg/dL
  TC: 81.8 mg/dL
  TG: 85.6 mg/dL
  TP: 5.7 g/dL
  gamma-GTP: 1 IU/L
100 mg/kg, 3 h, dose level Low
  TERMINAL_BW: 213.7 g
  APTT: 19.6 s
  Bas: 0%
  Eos: 0.6%
  Fbg: 217.4 mg/dL
  Hb: 13.5 g/dL
  Ht: 38.2%
  Lym: 71.2%
  MCH: 22.6 pg
  MCHC: 35.3%
  MCV: 64.1 fL
  Mono: 2.4%
  Neu: 24%
  PT: 12.3 s
  Plat: 112.1 x10_4/uL
  RBC: 596.2 x10_4/ul
  Ret: 7.2%
  WBC: 80 x10_2/uL
  KIDNEY_L: 1 g
  KIDNEY_R: 1 g
  KIDNEY_TOTAL: 1.9 g
  LIVER: 10.3 g
  A/G: 1.7
  ALP: 1057.6 IU/L
  ALT: 38 IU/L
  AST: 64.8 IU/L
  BUN: 9.4 mg/dL
  CRE: 0.4 mg/dL
  Ca: 10.5 mg/dL
  Cl: 104.2 meq/L
  DBIL: 0.076 mg/dL
  GLC: 196.2 mg/dL
  IP: 9.2 mg/dL
  LDH: 186.2 IU/L
  Na: 141 meq/L
  PL: 144.6 mg/dL
  RALB: 3.4 g/dL
  TBIL: 0.1 mg/dL
  TC: 79 mg/dL
  TG: 56.6 mg/dL
  TP: 5.5 g/dL
  gamma-GTP: 1 IU/L
100 mg/kg, 6 h, dose level Low
  TERMINAL_BW: 212.2 g
  APTT: 18.5 s
  Bas: 0%
  Eos: 0.8%
  Fbg: 222.2 mg/dL
  Hb: 13.4 g/dL
  Ht: 37.5%
  Lym: 71.4%
  MCH: 22.2 pg
  MCHC: 35.7%
  MCV: 62.3 fL
  Mono: 2.6%
  Neu: 22.8%
  PT: 12.4 s
  Plat: 120.7 x10_4/uL
  RBC: 602.6 x10_4/ul
  Ret: 6.8%
  WBC: 98.6 x10_2/uL
  KIDNEY_L: 1 g
  KIDNEY_R: 0.9 g
  KIDNEY_TOTAL: 1.9 g
  LIVER: 9.4 g
  A/G: 1.5
  ALP: 808.4 IU/L
  ALT: 34.2 IU/L
  AST: 68 IU/L
  BUN: 9.4 mg/dL
  CRE: 0.4 mg/dL
  Ca: 10.7 mg/dL
  Cl: 103.2 meq/L
  DBIL: 0.068 mg/dL
  GLC: 189.4 mg/dL
  IP: 9 mg/dL
  LDH: 202 IU/L
  Na: 140.4 meq/L
  PL: 141.2 mg/dL
  RALB: 3.2 g/dL
  TBIL: 0.1 mg/dL
  TC: 82 mg/dL
  TG: 60 mg/dL
  TP: 5.4 g/dL
  gamma-GTP: 1.4 IU/L
100 mg/kg, 9 h, dose level Low
  TERMINAL_BW: 209.4 g
  APTT: 18.3 s
  Bas: 0%
  Eos: 0.8%
  Fbg: 232.2 mg/dL
  Hb: 13.4 g/dL
  Ht: 37.1%
  Lym: 74.2%
  MCH: 22 pg
  MCHC: 36%
  MCV: 61.2 fL
  Mono: 2.2%
  Neu: 19.2%
  PT: 12.1 s
  Plat: 116.7 x10_4/uL
  RBC: 606.6 x10_4/ul
  Ret: 7%
  WBC: 87.3 x10_2/uL
  KIDNEY_L: 0.9 g
  KIDNEY_R: 1 g
  KIDNEY_TOTAL: 1.9 g
  LIVER: 9 g
  A/G: 1.6
  ALP: 851.2 IU/L
  ALT: 31.2 IU/L
  AST: 61.2 IU/L
  BUN: 10.2 mg/dL
  CRE: 0.4 mg/dL
  Ca: 10.5 mg/dL
  Cl: 103.6 meq/L
  DBIL: 0.064 mg/dL
  GLC: 200.8 mg/dL
  IP: 8.8 mg/dL
  LDH: 135.4 IU/L
  Na: 141 meq/L
  PL: 140.8 mg/dL
  RALB: 3.4 g/dL
  TBIL: 0.1 mg/dL
  TC: 80.6 mg/dL
  TG: 62.4 mg/dL
  TP: 5.5 g/dL
  gamma-GTP: 0.8 IU/L
[5]
  TERMINAL_BW: 225.3 g
  APTT: 19.8 s
  Bas: 0%
  Eos: 1%
  Fbg: 229.6 mg/dL
  Hb: 13.3 g/dL
  Ht: 37.2%
  Lym: 78.2%
  MCH: 22.3 pg
  MCHC: 35.8%
  MCV: 62.2 fL
  Mono: 2.2%
  Neu: 16.2%
  PT: 12 s
  Plat: 121.8 x10_4/uL
  RBC: 599.4 x10_4/ul
  Ret: 6.1%
  WBC: 86.8 x10_2/uL
  KIDNEY_L: 1 g
  KIDNEY_R: 1 g
  KIDNEY_TOTAL: 2 g
  LIVER: 10.8 g
  A/G: 1.4
  ALP: 990 IU/L
  ALT: 40.6 IU/L
  AST: 68.2 IU/L
  BUN: 14.2 mg/dL
  CRE: 0.4 mg/dL
  Ca: 10.6 mg/dL
  Cl: 104.2 meq/L
  DBIL: 0.076 mg/dL
  GLC: 199.4 mg/dL
  IP: 7.7 mg/dL
  LDH: 198.4 IU/L
  Na: 140.6 meq/L
  PL: 145.8 mg/dL
  RALB: 3.3 g/dL
  TBIL: 0.1 mg/dL
  TC: 74.2 mg/dL
  TG: 82.6 mg/dL
  TP: 5.6 g/dL
  gamma-GTP: 0.6 IU/L
